Measurements: patent US20030166018A1, “Methods for identifying agents that modulate mast cell degranulation” (priority 2002, published 2003)

Test system: mast cells
Experiment: Radioprotection of mast cells from γ-irradiation-induced apoptosis (anti-annexin V and propidium iodide staining)
Assay type: cell-based
Details: cultured mast cells from wild type and SWAP-70 ko/ko mice (similar degree in both); 100 ng/ml SCF, with or without IL-3; irradiated 0-160 Gy; FIG. 3B
Excerpt: Analysis of peritoneal fluid by Percol gradient centrifugation used step-gradients (increments 0.005) with densities of Percol in PBS, 2% FCS from 1.07 to 1.09. Cells accumulating in the pellet and those banding at 1.09 and 1.085 densities stained intensively with toluidine blue and with berberine sulfate and are regarded as mature mast cells. Assays for apoptosis used staining of cells with propidium iodide or anti annexin V antibodies as described (Ref. 15). Immunofluorescence and Western blotting were performed as described (Ref. 24).
Mast cells from wild type and SWAP-70^ko/ko mice were cultured in the presence or absence of 100 ng/ml SCF, with or without IL-3, and irradiated with various doses (0-160 Gy). Subsequently, apoptosis was measured by staining with anti-annexin V and propidium iodine. […] This elevated sensitivity was confirmed in a series of irradiation experiments in which mast cells were compared to other primary cell types, including thymocytes, preB cells, and fibroblasts. All of these non-mast cell were of identical sensitivity for γ-irradiation regardless of their SWAP-70 genotype. No increased sensitivity of SWAP-70 deficient mast cells for UV irradiation was observed.

stem cell factor [SCF]
protection from γ-irradiation-induced apoptosis: 3 fold
